Values of other authors in patent publication US7569576B2, “Cyclic 1-(acyloxy)-alkyl prodrugs of GABA analogs, compositions and uses thereof” (XenoPort, Inc., priority 2002, dated 2009).

Q: Which “toxicity (LD50, mouse)” value does the source give for `NCC1(CC(=O)O)CCCCC1` [gabapentin] here?
A: Its value is “more than 8000 mg/kg”.

Q: With `O=C1CC2(CCCCC2)CN1` [lactam 9] as the compound, how does the “toxicity (LD50, mouse)” value read?
A: The value was 300 mg/kg.
